Columns and labels:
NKG2C+ NK cells = assay: In vitro culture of CD56dim NK cells from HCMV− donors with peptide-pulsed targets and IL-15 (proliferation, accumulation); format: cell-based, human; details: RMA-S/HLA-E/LFA-3, IL-15, IL-12/18 during initial 20 h, 14 days
Procedure: CD56^+ MACS-enriched cells from HCMV^− donors were stained with viability dye, CD3, and CD56, FACS-sorted for viable CD3^− CD56^dim NK cells, and rested overnight in complete medium. Purified CD56^dim NK cells were labeled with 2 μM CellTrace violet (Thermo Fisher) according to the manufacturer's instructions. 5×10^5 labeled NK cells were cultured with 1×10^5 peptide-pulsed […] irradiated (30 Gy) target cells in complete medium containing 10 ng/ml IL-15 (Miltenyi Biotec) in U-bottom 96-well plates (Greiner Bio-One) for the indicated times. Complete medium containing IL-15 was replaced every third to fourth day. On days 4, 7, and 11 of culture, 1×10^5 fresh peptide-pulsed irradiated target cells were added to the cultures.
Where indicated, 10 ng/ml IL-12 (Miltenyi Biotec) and 100 ng/ml IL-18 (MBL) were added at the start of co-cultures. After 20 h of culture, the cells were washed 3 times and resuspended in complete medium containing 10 ng/ml IL-15. Control wells without IL-12/18 were treated equally. To determine NKG2C+ NK cell numbers per μl of culture medium, CountBright Absolute Counting Beads (ThermoFisher) were used according to the manufacturer's instructions.
Proliferation and replication indices^60 of NKG2C+ cells were calculated using the proliferation analysis platform included in FlowJo v9.9 (FlowJo LLC) and normalized to those of NKG2C^− cells in the same condition.

adaptive NKG2C+ NK cells = assay: Stimulation of purified NK cells with peptide-pulsed RMA-S/HLA-E (effector functions); format: cell-based, human; details: RMA-S/HLA-E pulsed with 300 μM peptide; 6 h; NK cells from healthy HCMV+ individuals
Procedure: HLA-E surface stabilization was induced as described previously^30. In brief, 300 μM synthetic peptides (Peptides&Elephants) were added to target cells cultured at a density of 2×10^6 cells/ml in serum-free Opti-MEM (ThermoFisher) and incubated for 16 h at 37° C. Peptide-pulsed cells were either stained for FACS analysis of HLA-E surface expression or washed with complete media and used in co-cultures. For pulse-chase experiments, cells were pulsed as above, washed twice, and resuspended in Opti-MEM without peptide. HLA-E surface expression was monitored by FACS analysis at indicated time points.
CD56^+ MACS-enriched cells were stained with viability dye, CD3, and CD56, FACS-sorted for viable CD3^−CD56^+ NK cells, and rested overnight in complete medium. Purified NK cells were stimulated by co-culture with peptide-pulsed (300 μM) irradiated (30 Gy) target cells at a 2:1 NK:target ratio for 6 h in the presence of 300 μM synthetic peptides.
For blocking experiments, rested FACS-sorted viable CD3^− CD56^dim NKG2A^− NKG2C+ NK cells were treated with 20 μg/ml IgG1 isotype control or anti-CD94 antibody (both RnD Systems) for 15 min prior to start of the co-culture.

VMAPRTLVL
NKG2C+ NK-cell absolute counts and frequencies (NKG2C+ NK cells): increase of NKG2C+ NK-cell absolute counts as well as frequencies | TNF, IFN-γ, CD107a, and CCL3 expression by adaptive NKG2C+ NK cells (adaptive NKG2C+ NK cells): differentially triggered
